In brackets after ≈: the same amount, converted by molar mass. Several values for one entry are separate records, joined by “and”; a condition that tells them apart may be missing. Equal entries are not always repeated.
Columns and labels:
Assay in all cases: ≥ marks a high value that may be exact or a test limit, other limits are often not marked, values filed in µg/mL are converted to µM
[1] = tested on: Escherichia coli ATCC 25922
[2] = tested on: Staphylococcus aureus ATCC 29213
[3] = tested on: Escherichia coli
[4] = tested on: Pseudomonas aeruginosa ATCC 27853
[5] = tested on: Pseudomonas aeruginosa
[6] = tested on: Staphylococcus aureus ATCC 25923
[7] = tested on: Staphylococcus aureus
[8] = tested on: Staphylococcus epidermidis ATCC 12228

SMILES	MIC [1]	MIC [2] [µM]	MIC [3] [µM]	MIC [4] [µM]	MIC [7] [µM]	further results
CC[C@H](C)[C@H](NC(=O)[C@H](CCCN=C(N)N)NC(=O)[C@H](CCC(N)=O)NC(=O)[C@H](CO)NC(=O)[C@@H](NC(=O)[C@H](CCCN=C(N)N)NC(=O)[C@H](CCCCN)NC(=O)[C@@H](N)Cc1ccccc1)[C@@H](C)CC)C(=O)N[C@@H](CCCCN)C(=O)N[C@@H](CC(=O)O)C(=O)N[C@@H](Cc1ccccc1)C(=O)N[C@@H](CC(C)C)C(=O)N[C@@H](CCCN=C(N)N)C(=O)O [FKRISQRIKDFLR]	5 µM (≈ 8.54 µg/mL)	> 40				
CC[C@H](C)[C@H](NC(=O)CN)C(=O)NCC(=O)N[C@@H](C)C(=O)N[C@H](C(=O)N[C@@H](CC(C)C)C(=O)N[C@@H](CCCCN)C(=O)N[C@H](C(=O)N[C@@H](CC(C)C)C(=O)N[C@H](C(=O)N[C@H](C(=O)NCC(=O)N[C@@H](CC(C)C)C(=O)N1CCC[C@H]1C(=O)N[C@@H](C)C(=O)N[C@@H](CC(C)C)C(=O)N[C@H](C(=O)N[C@@H](CCCCN)C(=O)N[C@@H](CCCN=C(N)N)C(=O)N[C@@H](CCCCN)C(=O)N[C@@H](CCCN=C(N)N)C(=O)N[C@@H](CCC(N)=O)C(=O)N[C@@H](CCC(N)=O)C(=O)O)[C@@H](C)CC)[C@@H](C)O)[C@@H](C)O)C(C)C)C(C)C [GIGAVLKVLTTGLPALIKRKRQQ]	1.02 µM (≈ 2.5 µg/mL)		0.359 (≈ 0.884 µg/mL)	2.03 (≈ 5 µg/mL)		MIC [5]: 1.44 µM (≈ 3.54 µg/mL); MIC [6]: 0.0508 µM (≈ 0.125 µg/mL)
CC[C@H](C)[C@H](NC(=O)CN)C(=O)NCC(=O)N[C@@H](CCCCN)C(=O)N[C@@H](Cc1ccccc1)C(=O)N[C@H](C(=O)N[C@@H](Cc1cnc[nH]1)C(=O)N[C@@H](CO)C(=O)N[C@H](C(=O)N[C@@H](CCCCN)C(=O)N[C@@H](CCCCN)C(=O)N[C@@H](Cc1c[nH]c2ccccc12)C(=O)NCC(=O)N[C@@H](CCCCN)C(=O)N[C@H](C(=O)N[C@@H](Cc1ccccc1)C(=O)N[C@H](C(=O)NCC(=O)N[C@@H](CCC(=O)O)C(=O)N[C@H](C(=O)N[C@@H](CCSC)C(=O)N[C@@H](CC(N)=O)C(=O)N[C@@H](CO)C(N)=O)[C@@H](C)CC)[C@@H](C)CC)[C@@H](C)O)C(C)C)[C@@H](C)CC [GIGKFIHSVKKWGKTFIGEIMNS]			2.3 (≈ 5.93 µg/mL)		18 (≈ 46.4 µg/mL)	MIC [5]: 18 µM (≈ 46.4 µg/mL)
CC[C@H](C)[C@H](N)C(=O)N[C@H](C(=O)N[C@@H](CO)C(=O)N[C@H](C(=O)N[C@H](C(=O)NCC(=O)N[C@@H](CCCCN)C(=O)N[C@@H](CC(C)C)C(=O)N[C@H](C(=O)N[C@@H](CCCCN)C(=O)N[C@@H](Cc1c[nH]c2ccccc12)C(=O)N[C@H](C(=O)N[C@H](C(=O)N[C@@H](CCCCN)C(=O)N[C@H](C(=O)N[C@H](C(=O)N[C@@H](CC(N)=O)C(=O)N[C@@H](CCCCN)C(=O)N[C@@H](Cc1ccccc1)C(=O)N[C@H](C(=O)N[C@@H](CCCCN)C(=O)N[C@@H](CCCCN)C(=O)O)[C@@H](C)O)C(C)C)[C@@H](C)O)[C@@H](C)CC)[C@@H](C)CC)C(C)C)[C@@H](C)CC)[C@@H](C)O)[C@@H](C)CC [IISTIGKLVKWIIKTVNKFTKK]			2.7 (≈ 6.91 µg/mL)		4.7 (≈ 12 µg/mL)	
CC[C@H](C)[C@H](N)C(=O)N[C@@H](Cc1c[nH]c2ccccc12)C(=O)N[C@@H](CCCN=C(N)N)C(=O)N[C@H](C(=O)N[C@@H](Cc1ccccc1)C(=O)N[C@@H](CCCN=C(N)N)C(=O)N[C@@H](CCCN=C(N)N)C(=O)N[C@H](C(=O)N[C@@H](Cc1ccccc1)C(=O)N[C@@H](CCCN=C(N)N)C(=O)N[C@H](C(=O)N[C@@H](Cc1ccccc1)C(N)=O)[C@@H](C)CC)[C@@H](C)CC)[C@@H](C)CC [IWRIFRRIFRIF]	4 µM and 8 µM	1 (≈ 1.72 µg/mL)		4 (≈ 6.89 µg/mL)		MIC [8]: 2 µM (≈ 3.44 µg/mL)
CC[C@H](C)[C@H](N)C(=O)N[C@@H](Cc1c[nH]c2ccccc12)C(=O)N[C@@H](CCCN=C(N)N)C(=O)N[C@H](C(=O)N[C@@H](Cc1ccccc1)C(=O)N[C@@H](CCCN=C(N)N)C(N)=O)[C@@H](C)CC [IWRIFR]	128 µM (≈ 114 µg/mL)	128 (≈ 114 µg/mL)		128 (≈ 114 µg/mL)		MIC [8]: 64 µM (≈ 56.9 µg/mL)
CC[C@H](C)[C@H](NC(=O)CNC(=O)[C@H](CC(C)C)NC(=O)[C@@H](NC(=O)[C@@H](N)Cc1ccc(O)cc1)[C@@H](C)O)C(=O)N[C@@H](CCCCN)C(=O)N[C@H](C(=O)N[C@@H](CC(C)C)C(=O)N[C@@H](Cc1c[nH]c2ccccc12)C(=O)N[C@@H](CO)C(=O)N[C@@H](C)C(=O)N[C@@H](Cc1ccc(O)cc1)C(=O)N[C@@H](CCCCN)C(=O)N[C@@H](Cc1cnc[nH]1)C(=O)N[C@@H](CCCN=C(N)N)C(=O)N[C@@H](CCCCN)C(=O)N[C@H](C(=O)N[C@H](C(=O)N[C@@H](CCC(=O)O)C(=O)N[C@@H](CCCCN)C(=O)N[C@@H](CO)C(=O)N[C@@H](Cc1ccccc1)C(=O)N[C@@H](CC(N)=O)C(=O)N[C@@H](CCCCN)C(=O)NCC(=O)N[C@@H](Cc1ccccc1)C(=O)N[C@@H](Cc1ccc(O)cc1)C(=O)N[C@@H](Cc1cnc[nH]1)C(=O)O)[C@@H](C)CC)[C@@H](C)O)[C@@H](C)CC [YTLGIKILWSAYKHRKTIEKSFNKGFYH]						MIC [8]: 50 µM (≈ 172 µg/mL)

The next lines start with results.

MIC [1]	MIC [2] [µM]	MIC [3] [µM]	MIC [4] [µM]	MIC [7] [µM]	SMILES	further results
		91 (≈ 162 µg/mL)		> 91	CC(C)C[C@H](NC(=O)[C@H](C)NC(=O)[C@H](CC(C)C)NC(=O)[C@@H](N)CCCCN)C(=O)N[C@@H](CCCCN)C(=O)N[C@@H](C)C(=O)N[C@@H](C)C(=O)N[C@@H](C)C(=O)N[C@@H](CCCCN)C(=O)N[C@@H](C)C(=O)N[C@@H](Cc1c[nH]c2ccccc12)C(=O)N[C@@H](CCCCN)C(=O)N[C@@H](C)C(=O)N[C@@H](C)C(=O)N[C@@H](C)C(=O)N[C@@H](CCCCN)C(=O)N[C@@H](C)C(=O)N[C@@H](C)C(N)=O [KLALKAAAKAWKAAAKAA]	MIC [5]: > 91 µM
> 80 µM	> 80				CC(=O)N[C@@H](CCCCN)C(=O)N[C@@H](CC(C)C)C(=O)N[C@@H](CC(C)C)C(=O)N[C@@H](CCCCN)C(=O)N[C@@H](CC(C)C)C(=O)N1CCC[C@H]1C(=O)N[C@@H](CCCCN)C(=O)N[C@@H](CCCCN)C(=O)N[C@@H](CC(C)C)C(=O)N[C@@H](CC(C)C)C(=O)N[C@@H](CCCCN)C(=O)N[C@@H](CC(C)C)C(=O)N[C@@H](CC(C)C)C(=O)N[C@@H](CCCCN)C(N)=O [KLLKLPKKLLKLLK]	
2.5 µM (≈ 4.61 µg/mL)	> 40				CC(C)C[C@H](NC(=O)[C@H](CCCCN)NC(=O)[C@H](CC(C)C)NC(=O)[C@H](CC(C)C)NC(=O)[C@H](CCCCN)NC(=O)[C@H](CCCCN)NC(=O)[C@H](Cc1cnc[nH]1)NC(=O)[C@H](CC(C)C)NC(=O)[C@H](CCCCN)NC(=O)[C@H](CC(C)C)NC(=O)[C@H](CC(C)C)NC(=O)[C@H](CCCCN)NC(=O)[C@H](CCCCN)NC(=O)[C@@H](N)CC(C)C)C(=O)N[C@@H](C)C(=O)NCC(=O)O [LKKLLKLHKKLLKLAG]	
14.4 µM (≈ 16 µg/mL)	> 57.5		14.4 (≈ 16 µg/mL)		CC[C@H](C)[C@H](NC(=O)[C@H](CCCCN)NC(=O)[C@H](CCCCN)NC(=O)[C@@H](N)CCC(N)=O)C(=O)N[C@@H](CCCN=C(N)N)C(=O)N[C@H](C(=O)N[C@@H](C)C(=O)N[C@@H](CC(C)C)C(=O)N[C@@H](CO)C(=O)N[C@@H](C)C(=O)O)C(C)C [QKKIRVALSA]	
		10.3 (≈ 20 µg/mL)		2.58 (≈ 5 µg/mL)	CC(C)C[C@H](NC(=O)[C@H](Cc1ccc(O)cc1)NC(=O)[C@@H]1CCCN1C(=O)[C@H](Cc1c[nH]c2ccccc12)NC(=O)[C@H](Cc1c[nH]c2ccccc12)NC(=O)[C@H](Cc1c[nH]c2ccccc12)NC(=O)[C@@H]1CCCN1C(=O)[C@H](Cc1ccc(O)cc1)NC(=O)[C@H](CCCN=C(N)N)NC(=O)[C@H](CCCN=C(N)N)NC(=O)[C@@H](N)C(C)C)C(=O)N[C@@H](CCCN=C(N)N)C(=O)N[C@@H](CCCN=C(N)N)C(N)=O [VRRYPWWWPYLRR]	

— DBAASP
